We go through 16 compounds from patent publication US20110038885A1, “CHEMOKINE ANALOGS” (priority 2007, published 2011).

Usually EC50 stands for the concentration at which the effect is half-maximal.

The test system of one data set is MCP-1. In words: In vitro chemotaxis (trans-well migration) v MCP-1. The format is cell-based, human. The method in brief: (§1)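 Trans-well migration toward IL-8 or MCP-1 placed below, with agent added to THP-1 cells (10^4-10^6) in the top well and incubation at 37° C (e.g. 4 hours). MTT absorbance at 595 nm, interpolated on a cell standard curve, gives migrated cell numbers; TGFβ-type negative control and cytotoxicity check included.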

The next data set relates to IL-8. As to the kind of experiment: In vitro chemotaxis, inhibition v IL-8. Further details: concentration or dose not given beside the values. The format is cell-based, human. The method in brief: as §1
Data set [1] can be described thus: Half-life in rat plasma in vitro. To be noted: for half-life: read-out: T ½ rat plasma in vitro (converted). The format is in vitro ADME.
A further data set in a line: Half-life in rat in vivo. To be noted: read-out: T ½ rat in vivo.

Bridge positions count the residues as written; N and C are the ends. Square brackets hold non-standard residues; d marks the D form. Peptide text beside a SMILES is read from it. * marks the point of attachment. Lauroyl = CCCCCCCCCCCC(=O)*; X1 = O=C(CN1CCN(CCO)CC1)*; Octanoyl = CCCCCCCC(=O)*

`CC[C@H](C)[C@@H]1NC(=O)[C@H](Cc2c[nH]c3ccccc23)NC(=O)[C@H](CCCCN)NC(=O)[C@@H](N)CSSC[C@@H](C(N)=O)NC(=O)[C@H](CCC(N)=O)NC1=O` [Example 1, c(Cys-Lys-Trp-Ile-Gln-Cys)-NH2] (H-CKWIQC-NH2; disulfide 1-6) registered an EC50 in the data set on MCP-1 of 12 nM. In addition, the “v IL-8 inhibition (%)” value in the data set with IL-8 is listed as 86.7%. Also, the half-life was > 1680 min in data set [1] and 19 min in “Half-life in rat in vivo”.

Regarding `CC[C@H](C)[C@@H]1NC(=O)[C@H](Cc2c[nH]c3ccccc23)NC(=O)[C@H](CCCCN)NC(=O)[C@H](CCC(N)=O)NC(=O)[C@H](CCCCN)NC(=O)[C@@H]2CCCN2C(=O)[C@H](CC(=O)O)NC(=O)[C@H](CC(C)C)NC(=O)[C@@H](N)CSSC[C@@H](C(N)=O)NC(=O)[C@H](CCC(N)=O)NC1=O` [Example 33, c(Cys-Leu-Asp-Pro-Lys-Gln-Lys-Trp-Ile-Gln-Cys)-NH2] (H-CLDPKQKWIQC-NH2; disulfide 1-11), the EC50 in the data set with MCP-1 came to 20 nM. Besides, the “v IL-8 inhibition (%)” value in the data set with IL-8 was found to be 90.0%. Also, the half-life in data set [1] is > 900 min; in “Half-life in rat in vivo” it was 6 min.

In the data set with MCP-1, `CC[C@H](C)[C@@H]1NC(=O)[C@H](Cc2c[nH]c3ccccc23)NC(=O)[C@H](CCCCN)NC(=O)[C@@H](NC(=O)[C@H](CCC(N)=O)NC(=O)[C@@H](N)CCCCN)CSSC[C@@H](C(N)=O)NC(=O)[C@H](CCC(N)=O)NC1=O` [Example 48, Lys-Gln-c(Cys-Lys-Trp-Ile-Gln-Cys)-NH2] (H-KQCKWIQC-NH2; disulfide 3-8) yielded an EC50 of 8 nM. Besides, the “v IL-8 inhibition (%)” value with IL-8 worked out at 91.9%. The half-life in “Half-life in rat in vivo” is < 5 min.

With `CCCCCCCC(=O)NCCCC[C@H](NC(=O)[C@H](CC(=O)O)NC(=O)[C@H]1CSSC[C@@H](N)C(=O)N[C@H](CCC(N)=O)C(=O)N[C@H]([C@H](C)CC)C(=O)N[C@H](Cc2c[nH]c3ccccc23)C(=O)N[C@H](CCCCN)C(=O)N[C@H](CCC(N)=O)C(=O)N[C@H](CCCCN)C(=O)N2CCC[C@@H]2C(=O)N[C@H](CC(=O)O)C(=O)N[C@H](CC(C)C)C(=O)N1)C(=O)O` [Example 148, c(D-Cys-D-Gln-D-Ile-D-Trp-D-Lys-D-Gln-D-Lys-D-Pro-D-Asp-D-Leu-D-Cys)-Asp-Lys(Nε-octanoyl)-OH] (H-[dC][dQ][dI][dW][dK][dQ][dK][dP][dD][dL][dC]DK(Octanoyl)-OH; disulfide 1-11), in the data set with MCP-1, a half-maximal response (EC50) required 6 nM. In addition, the “v IL-8 inhibition (%)” value in the data set on IL-8 came out at 100.9%. The half-life in “Half-life in rat in vivo” was found to be 39 min.

Regarding `CC[C@@H](C)[C@H]1NC(=O)[C@@H](CCC(N)=O)NC(=O)[C@H](NC(=O)CN2CCN(CCO)CC2)CSSC[C@H](C(N)=O)NC(=O)[C@@H](CC(C)C)NC(=O)[C@@H](CC(=O)O)NC(=O)[C@H]2CCCN2C(=O)[C@@H](CCCCN)NC(=O)[C@@H](CCC(N)=O)NC(=O)[C@@H](CCCCN)NC(=O)[C@@H](Cc2c[nH]c3ccccc23)NC1=O` [Example 152, HEPA-c(D-Cys-D-Gln-D-Ile-D-Trp-D-Lys-D-Gln-D-Lys-D-Pro-D-Asp-D-Leu-D-Cys)-NH2] (X1-[dC][dQ][dI][dW][dK][dQ][dK][dP][dD][dL][dC]-NH2; disulfide 1-11), the response in the data set on MCP-1 was half-maximal at 20 nM (EC50). Also, the “v IL-8 inhibition (%)” value in the data set with IL-8 worked out at 103.5%. Further, in the data set “Half-life in rat in vivo”, the half-life was 38 min.

In the case of `CCCCCCCCCCCC(=O)NCCCC[C@H](NC(C)=O)C(=O)N[C@H]1CSSC[C@@H](C(N)=O)NC(=O)[C@H](CCC(N)=O)NC(=O)[C@H]([C@@H](C)CC)NC(=O)[C@H](Cc2c[nH]c3ccccc23)NC(=O)[C@H](CCCCN)NC(=O)[C@H](CCC(N)=O)NC(=O)[C@H](CCCCN)NC(=O)[C@@H]2CCCN2C(=O)[C@H](CC(=O)O)NC(=O)[C@H](CC(C)C)NC1=O` [Example 162, Ac-Lys(N/-dodecanoyl)-c(Cys-Leu-Asp-Pro-Lys-Gln-Lys-Trp-Ile-Gln-Cys)-NH2] (Ac-K(Lauroyl)CLDPKQKWIQC-NH2; disulfide 2-12), in the data set on MCP-1, the EC50 was found to be 20 nM. For the same compound, the “v IL-8 inhibition (%)” value with IL-8 came out at 101.1%. For the same compound, the half-life in “Half-life in rat in vivo” worked out at 17 min.

In the case of `CC(C)(C)OC(=O)N[C@@H](Cc1c[nH]c2ccccc12)C(=O)NCC(=O)NC1CCC(=O)NC1=O` (stereo partly drawn) [Example 163, BOC-Trp-Gly-α-aminoglutaramide], in the data set on MCP-1, the EC50 is 20 nM. In the data set on IL-8, the “v IL-8 inhibition (%)” value amounted to 105.7%. Further, in data set [1], the half-life is 366 min.

As to `CC(C)[C@H](NC(=O)[C@H](Cc1c[nH]c2ccccc12)NC(=O)OC(C)(C)C)C(=O)NC1CCC(=O)NC1=O` (stereo partly drawn) [Example 164, BOC-Trp-Val-α-aminoglutaramide], in the data set with MCP-1, the EC50 came out at 20 nM. For the same compound, the “v IL-8 inhibition (%)” value in the data set with IL-8 was determined as 104.4%. Besides, the half-life was 666 min in data set [1] and 33 min in the data set “Half-life in rat in vivo”.

In turn, `CC(C)(C)OC(=O)N[C@@H](Cc1c[nH]c2ccccc12)C(=O)NCCC(=O)NC1CCC(=O)NC1=O` (stereo partly drawn) [Example 165, BOC-Trp-βA1a-α-aminoglutaramide] had an EC50 with MCP-1 of 5 nM. Also, the “v IL-8 inhibition (%)” value in the data set on IL-8 amounted to 111.5%. Besides, the half-life in data set [1] is 240 min.

On to `CCCCCCCCCCCC(=O)NCCCC[C@H](N)C(=O)N[C@@H](CC(=O)O)C(=O)N[C@H]1CSSC[C@@H](C(N)=O)NC(=O)[C@H](CCC(N)=O)NC(=O)[C@H]([C@@H](C)CC)NC(=O)[C@H](Cc2c[nH]c3ccccc23)NC(=O)[C@H](CCCCN)NC(=O)[C@H](CCC(N)=O)NC(=O)[C@H](CCCCN)NC(=O)[C@@H]2CCCN2C(=O)[C@H](CC(=O)O)NC(=O)[C@H](CC(C)C)NC1=O` [Example 170, Lys(Nε-dodecanoyl)-Asp-c(Cys-Leu-Asp-Pro-Lys-Gln-Lys-Trp-Ile-Gln-Cys)-NH2] (H-K(Lauroyl)DCLDPKQKWIQC-NH2; disulfide 3-13), for which the EC50 in the data set with MCP-1 was > 1000 nM. Further, in the data set on IL-8, the “v IL-8 inhibition (%)” value was −5.1%. Further, the half-life in “Half-life in rat in vivo” worked out at 5 min.

On to `CC(C)OC(=O)N[C@@H](Cc1c[nH]c2ccccc12)C(=O)NCCC(=O)NC1CCC(=O)NC1=O` (stereo partly drawn) [Example 179, N-(isopropoxycarbonyl)-Trp-βAla-α-aminoglutarimide], for which the half-life in data set [1] is 546 min.

In the data set with MCP-1, `N[C@@H](Cc1c[nH]c2ccccc12)C(=O)NCCC(=O)NC1CCC(=O)NC1=O` (stereo partly drawn) [Example 182, Trp-βAla-α-aminoglutaramide] had an EC50 of 6 nM. For the same compound, in data set [1], the half-life was 54 min.

In the case of `CC[C@@H](C)[C@H]1NC(=O)[C@@H](CCC(N)=O)NC(=O)[C@H](N)CSSC[C@H](C(N)=O)NC(=O)[C@@H](CCCCN)NC(=O)[C@@H](Cc2c[nH]c3ccccc23)NC1=O` [Example 183, c(D-Cys-D-Gln-D-Ile-D-Trp-D-Lys-D-Cys)-NH2] (H-[dC][dQ][dI][dW][dK][dC]-NH2; disulfide 1-6), a half-maximal response in the data set on MCP-1 (EC50) required 20 nM. In addition, the half-life in data set [1] is > 1440 min.

In the case of `CC(C)[C@@H](CC(=O)NC1CCC(=O)NC1=O)NC(=O)[C@H](Cc1c[nH]c2ccccc12)NC(=O)OC(C)(C)C` (stereo partly drawn) [Example 184, BOC-Trp-βhVal-α-aminoglutarimide], the EC50 in the data set on MCP-1 was found to be 10 nM. The half-life in data set [1] was 78 min.

In turn, `CC(C)(NC(=O)[C@@H](N)Cc1c[nH]c2ccccc12)C(=O)NC1CCC(=O)NC1=O` (stereo partly drawn) [Example 188, Trp-Aib-aminoglutarimide] gave an EC50 in the data set with MCP-1 of 66 nM. Further, the half-life in data set [1] was 186 min.

“BOC-Tcc-βAla-α-aminoglutaramide [Example 171]”: in the data set with MCP-1, a half-maximal response (EC50) required 602 nM. Also, the “v IL-8 inhibition (%)” value in the data set on IL-8 came out at 84.6%. The “T ½ rat plasma in vitro” value in data set [1] was 8.5 h.
